The text below walks through data of patent US4210671A, “Abietamide derivatives, their production and use” (priority 1974, dated 1980).

The subject of this experiment is cholesterol in blood. The experiment can be described thus: Reduction of blood cholesterol in rats fed a cholesterol diet. It is filed as in vivo. The settings on record: male rats, 3 days, relative value: control group = 0, normal group = 100, * 5%, ** 1% significance over control; for % Inhibition (blood cholesterol), Dose in Diet 0.03%: 0.03% test compound in diet with 1% cholesterol and 0.25% sodium cholate; for % Inhibition (blood cholesterol), Dose in Diet 0.1%: 0.1% test compound in diet with 1% cholesterol and 0.25% sodium cholate. Here is the method: A completely synthetic diet containing 1% of cholesterol, 0.25% of sodium cholate and 0.03% and 0.1% of the test compound is given to a group of 6 male rats having a body weight of about 50 g consecutively for 3 days, and the rats are fasted overnight. Then, the rats are decapitated, and their blood is collected to determine the cholesterol concentration in the collected blood. The concentration of cholesterol in blood is measured with Technicon Autoanalyzer (Technicon Laboratory: Method File N-24a).
Each value shown in the Table is a relative value determined based on the supposition that the value of the control group (the cholesterol-administered group) is 0 and the value of the normal group (the non-cholestero-administered group) is 100.

`CC(C)C1=CC2=CC[C@@H]3[C@](C)(CCC[C@@]3(C)C(=O)NC3CCCC3)[C@H]2CC1` [N-Cyclopentylabietamide]: the “% Inhibition (blood cholesterol), Dose in Diet 0.03%” value (shortened to “% Inhibition … in Diet 0.03%”) is on record as 11% and the “% Inhibition (blood cholesterol), Dose in Diet 0.1%” value (“% Inhibition … in Diet 0.1%” for short) is listed as 32%.

Consider N-Benzyldihydroabietamide, for which the “% Inhibition … in Diet 0.03%” value is 25% and the “% Inhibition … in Diet 0.1%” value is on record as 64%.

Turning to N-Methyl-N-phenyldihydroabietamide, the “% Inhibition … in Diet 0.03%” value is -8% and the “% Inhibition … in Diet 0.1%” value was found to be 27%.

Consider N-α-Phenylethyldihydroabietamide, for which the “% Inhibition … in Diet 0.03%” value came out at 71% and the “% Inhibition … in Diet 0.1%” value turned out to be 99%.
